Test [1] relates to IL-2 gene expression in LPS induced peripheral blood mononuclear cells (PBMCs). Nature of the test: IL-2 gene expression relative to GAPDH in LPS induced PBMCs (RT-PCR). To be noted: 1.0 ug/ml sesamin (culture 4), LPS 20 ng/ml, 24 hours. It is filed as cell-based. The protocol: Experiments were conducted to evaluate the effect of particular phytochemical compositions provided by the present disclosure on IL-2 gene expression in specified cells found within a body of a living organism. Cells used for the experiment described in this example are LPS induced peripheral blood mononuclear cells (PBMCs). It is understood by a person having ordinary skill in the art that the PBMCs may be substituted for other immune cells found within the body. It is also understood by a person having ordinary skill in the art that other inducing substances or chemicals besides LPS, for example viral antigens, may also be used for inducing the PBMCs.
Preparation of PBMCs is done by standard isolation techniques or methods known to a person of ordinary skill in the art as with the experiments of example two. In addition, LPS can be obtained from a commercial source, for example Sigma-Aldrich Co. The PBMCs are cultured in 10% fetal calf serum in RPMI1640 medium. Five cultures of PBMCs, i.e. culture 1 to culture 5, were prepared. […]
The amount or level of IL-2 gene expression in the PBMCs was measured or determined using methods or techniques known to a person having ordinary skill in the relevant art. In example three, Real-Time PCR (RT-PCR) was used for quantifying the amount of IL-2 gene expression in the PBMCs.

Test [2] concerns influenza A (H1N1) virus-infected egg cells. As to the kind of experiment: Quantity of IL-1 released by influenza A (H1N1) virus-infected egg cells. Type of test: cell-based. To be noted: for quantity of IL-1 released: 24 hours, FIG. 5; for percentage of quantity of human IL-1 released relative to quantity of isolated egg cells (diluted 1:50): uninfected culture 1 = 100%, FIG. 6. The protocol:
Experiments were conducted to evaluate the effects of particular phytochemical compositions provided by the present disclosure on quantity of IL-1 released by virus-infected cells. Virus-infected cells used for the experiments described in this example are influenza A (H1N1) virus-infected cells. More specifically, the virus-infected cells used for the experiments described in this example are influenza A (H1N1) virus-infected egg cells. The influenza A (H1N1) virus can be isolated from patients infected with the influenza A (H1N1) using standard techniques known to a person of ordinary skill in the art. In addition, isolation of cells (e.g., egg cells), and the infection of cells (e.g., isolated egg cells) can be performed using standard techniques or method known to a person of ordinary skill in the art. It is understood by a person having ordinary skill in the art that the influenza A (H1N1) virus-infected egg cells may be substituted for other viral-infected cells, or other cells found within the body, for instance, cells that that are involved in inflammatory responses within the body.
Six cultures of cells, i.e., culture 1 to culture 6, were prepared. The contents of each of cultures 1 to culture 6 are as follows: • (i) Culture 1: Control culture 1. Includes a predetermined volume of a sample of isolated egg cells that has been diluted in a ratio of 1:50; • (ii) Culture 2: Control culture 2. Includes the predetermined volume of the sample of isolated egg cells similar to that of culture 1 that have been infected with the influenza A (H1N1) virus diluted at a ratio of 1:7812500; • (iii) Culture 3: Control culture 3. Includes the predetermined volume of the sample of isolated egg cells similar to that of culture 1 and a volume of DMSO that has been infected with the influenza A (H1N1) virus diluted at a ratio of 1:7812500; • (iv) Culture 4: Includes the predetermined volume of the sample of isolated egg cells that have been infected with the influenza A (H1N1) virus similar to that of culture 2, and a volume of phytochemical composition providing sesamin at a concentration of 0.5 ug/ml; • (v) Culture 5: Includes the predetermined volume of the sample of isolated egg cells that have been infected with the influenza A (H1N1) virus similar to that of culture 2, and a volume of phytochemical composition providing sesamin at a concentration of 1.0 ug/ml; and • (vi) Culture 6: Includes the predetermined volume of the sample of isolated egg cells that have been infected with the influenza A (H1N1) virus similar to that of culture 2, and a volume of phytochemical composition providing sesamin at a concentration of 10.0 ug/ml.
In the experiments of example six, each of cultures 1 to 6 is made up to a final volume of approximately 200 μl in a well of a standard 96 well plate. It will be understood by a person of ordinary skill in the art that an alternative final volume (e.g., 100 μl) may also be used. The number or concentration of isolated egg cells used for each culture is approximately equal. For instance, the number of isolated egg cells used for each culture is approximately 2×10^5 (i.e., 200,000). It will be understood by a person of ordinary skill in the art that the number or concentration of isolated egg cells used for each of cultures 1 to 6 can be adjusted as required by varying the degree of dilution of the cultures (e.g., by increasing total volume of the culture by adding medium).
Each of cultures 1 to 6 was incubated at the same physical conditions for an equal length of time. More specifically, each culture was incubated at a temperature of 37° C. with 5% of carbon dioxide for 24 hours. The amount of IL-1 released from the isolated egg cells of each of cultures 1 to 6 was measured or determined using methods or techniques known to a person having ordinary skill in the relevant art.

For `c1cc2c(cc1[C@H]1OC[C@H]3[C@@H]1CO[C@@H]3c1ccc3c(c1)OCO3)OCO2` [sesamin], the “increase in IL-2 gene expression relative GAPDH” value in test [1] is reported as “approximately 220%”. For the same molecule, the “quantity of IL-1 released” value is recorded as “approximately 4 pg/ml” in test [2] (0.5 ug/ml sesamin (culture 4)), “approximately 3.5 pg/ml” in test [2] (1.0 ug/ml sesamin (culture 5)) and “approximately 3 pg/ml” in test [2] (10.0 ug/ml sesamin (culture 6)). For the same molecule, the “percentage of quantity of human IL-1 released relative to quantity of isolated egg cells (diluted 1:50)” value in test [2] (0.5 ug/ml sesamin) is “approximately 22%”; in test [2] (1.0 ug/ml sesamin), “approximately 18%”; in test [2] (10.0 ug/ml sesamin), “approximately 16%”.
